Source: US4990534A, “Aralkyl esters and processes for their preparation” (priority 1987, dated 1991)
Like-named read-outs stand apart in the source and are kept apart here.

Key:
[1] = test system: synaptosomal uptake, serotonin; experiment: Inhibition of synaptosomal uptake of serotonin; assay type: biochemical; conditions: rat cerebral cortex synaptosomes, 50 nM [14C]serotonin, pH 7.4, 37° C.
Method: (§1) Inhibition of the Synaptosomal Uptake of Monoamines
(§2) Crude synaptosome preparations from rat cerebral cortex were made by homogenizing the tissues in 10 volumes of ice-cold 0.32M sucrose with all-glass Potter'-Elvehjem's homogenizers. The homogenates were centrifuged at 800 g at +2° C. for 10 min. The supernatants were centrifuged at 12000 g at +2° C. for 10 min, and the pellets were rehomogenized in 0.32M sucrose to the original volume. The incubation of the preparations with [^14 C]serotonin plus [^3 H]noradrenaline with final concentrations of 50 nM of each amine was performed in a Micronic PPN Storage-Block-96 (Flow Laboratories) with 8×12 wells using two rows at each incubation. Four to five different concentrations of two test compounds in duplicates were examined at each incubation. Fifty microliters of the synaptosomal preparation, 400 μl of the Krebs-Henseleit's buffer, pH 7.4, containing 5.6 mM glucose, 1.1 mM ascorbic acid, 0.13 mM disodium edetate, and 50 μM pargyline, and 25 μl of the inhibitor or distilled water were added to the wells. The solutions were mixed by vortexing the block for 10 s. After 10-min preincubation at 37° C. in a water bath, 25 μl of the solutions of the radioactively labeled amines was added to the two rows with a Titretec Multicannel Pipette, type 12-Channel (Flow Laboratories). The reaction was immediately started by vortexing the block for 10 s on a Super-Mixer, and the incubation was continued for 2 min at 37° C. The uptake reaction was stopped by filtration and washing for 15 s with ice-cold 0.15M NaCl through a Whatman GF/B glass filter paper in a 24-channel Cell Harvester (Brandel) using the standard harvesting probe. The filters were left to dry in room temperature for about 1 h. The punched filters were transformed to counting vials, 10 mL of the scintillation liquid (Aquasol, NEN) was added, and vials were shaken and allowed to stand for 1 h before counting. The radioactivety was measured in a Packard Tri Carb liquid scintillation photometer. The active uptake of the amines was defined as the difference between the accumulation of the radioactivity in the absence (quadriplicates) and the presence (quadriplicates) of selective uptake inhibitors, determined at each incubation. These inhibitors were citalopram (0.3 μM) for the serotonin uptake and maprotiline (1 μM) for the norepinephrine uptake. The inhibition was calculated in percent of the active uptake. The IC50 values were obtained from log concentration-response curves.

[2] = test system: synaptosomal uptake, noradrenalin; experiment: Inhibition of synaptosomal uptake of noradrenalin; assay type: biochemical; conditions: rat cerebral cortex synaptosomes, 50 nM [3H]noradrenaline, pH 7.4, 37° C.
Method: as §1, §2

[3] = test system: cholinergic responses (oxotremorine-induced tremor); experiment: Potentiation of oxotremorine-induced tremor in rats; assay type: in vivo, rat (Sprague Dawley); conditions: for minimal effective dose: Rattus norvegicus
Method: Potentiation of cholinergic responses
Studies on oxotremorine-induced tremor in rats
Male rats (Sprague Dawley Alab Laboratorietjanst AB, Sollentuna, Sweden) weighing 150-180 g, 35-40 days of age, were used. The animals were allowed free access to food (R3, Ewos AB, Sodertalje, Sweden) and water until the start of the experiments. The test compounds were injected intraperitoneally (i.p.) 30 min before injection of oxotremorine into the neck (s.c.). Tremor intensity was assessed visually for a 60 min period following the injection of oxotremorine in rat housed in Macrolon cages (25×25×30 cm) (tree per cage). The treshold dose of oxotremorine for eliciting tremor in rat is 200 μg/kg.
Tremor intensity was scored using the following rating scale: 0=no tremor; 1=slight tremor (moderate, discontinuous tremor); 2=strong tremor (intense, continuous tremor involving the whole body). The animals were scored 5, 10, 15, 30 and 60 min after injection of oxotremorine. The tremor was scored for a period of 30 seconds.
The values for each observation were summed over the entire observation period (5-60 min) and their median values for each group were calculated (total median score). Mann-Whitney U-test (two-tailed) was used to determine differences between the control oxotremorine group and test groups receiving the compounds+oxotremorine. It should be noted that a control group receiving oxotremorine alone was always run concurrently with each compound tested.
The lowest dose causing a significant (p<0.05) potentiation of the oxotremorine response was determined from log-dose response curves.

central nervous system = conditions: man; U.S. Pat. No. 4 237 311; cited from earlier work
cholinergic responses = conditions: U.S. Pat. No. 4 469 707; cited from earlier work
[4] = test system: neuronal 5-hydroxytryptamine (5-HT) uptake; conditions: U.S. Pat. No. 4 237 311; cited from earlier work
[5] = ip, read-out: Potentiation of OTMN tremor in rat (lowest dose causing a significant potentiation), i.p. 30 min before oxotremorine s.c., p<0.05, scored 5-60 min
[6] = ip, i.p. 30 min before oxotremorine s.c., p<0.05, scored 5-60 min, read-out: Potentiation of OTMN tremor in rat (lowest dose causing a significant potentiation)
[7] = i.p. 30 min before oxotremorine s.c., p<0.05, scored 5-60 min

Compound	EC50 [1] [µM]	EC50 [2] [µM]	minimal effective dose [3, 5] [mg/kg]	minimal effective dose [3, 6] [mg/kg]	further results
CCC(C)C(N)C(=O)OC(C)(C)Cc1ccc(Cl)cc1 (centres unmarked) [Example 12, 1-(4-Chlorophenyl)-2-methyl-2-propyl 2-amino-3-methylpentanoate]	6.5	3.2	20		
C#CCC(N)C(=O)OC(C)(C)Cc1ccc(Cl)cc1 (centres unmarked) [Example 7, 1-(4-Chlorophenyl)-2-methyl-2-propyl 2-amino-4-pentynoate]	> 10	> 10		10	
CC(C)C(N)C(=O)OC(C)(C)Cc1ccc(Cl)cc1 (single isomer, unassigned) [Example 27, 1-(4-chlorophenyl)-2-methyl-2-propyl 2-amino-3-methyl-butanoate]	3.3	1.7			Potentiation of OTMN tremor in rat (lowest dose causing a significant potentiation) [3, 7]: 10 mg/kg
CCCC(N)C(=O)OC(C)(C)Cc1ccc(F)cc1 (centres unmarked) [Example 3, 1-(4-fluoropnenyl)-2-methyl-2-propyl 2-aminopentanoate]	6	3.2		10	
CCC(N)C(=O)OC(C)(C)Cc1ccc(F)cc1 (centres unmarked) [Example 2, 1-(4-fluorophenyl)-2-methyl-2-propyl 2-aminobutanoate]	3	7	10		
C=CCC(N)C(=O)OC(C)(C)Cc1ccc(Cl)cc1 (centres unmarked) [Example 5, 1-(4-Chlorophenyl)-2-methyl-2-propyl 2-amino-4-pentenoate]	3.6	2.5		20	
CCC(N)C(=O)OC(C)(C)Cc1ccc(Cl)cc1 (centres unmarked) [Example 1, 1-(4-Chlorophenyl)-2-methyl-2-propyl 2-aminobutanoate]	2.8	8	2.5		
CC(N)C(=O)OC(C)(C)Cc1ccc(Cl)cc1 (centres unmarked) [Alaproclate, reference compound]	0.12	> 10	5		antidepressive activity (in words) (central nervous system): antidepressive activity combined with a reduced frequency of side effects; effect on cholinergic responses (in words) (cholinergic responses): potentiating effect on cholinergic responses; effect on neuronal 5-HT uptake (in words) [4]: blocking the neuronal 5-hydroxytryptamine (5-HT) uptake; tremor response induced by a threshold dose of oxotremorine (in words) ([3]; threshold dose of oxotremorine): enhance the tremor response
CCCC(N)C(=O)OC(C)(C)Cc1ccc(Cl)cc1 (centres unmarked) [Example 4, 1-(4-Chlorophenyl)-2-methyl-2-propyl 2-aminopentanoate]	2.3	1.5		2.5	
CC(C)C(N)C(=O)OC(C)(C)Cc1ccc(F)cc1 (centres unmarked) [Example 13, 1-(4-Fluorophenyl)-2-methyl-2-propyl 2-amino-3-methylbutanoate]	10	2.9		20	
CC(C)CC(N)C(=O)OC(C)(C)Cc1ccc(Cl)cc1 (centres unmarked) [Example 11, 1-(4-Chlorophenyl)-2-methyl-2-propyl 2-amino-4-methylpentanoate]	8	3.4	10		
CC(C)C(N)C(=O)OC(C)(C)Cc1cc(Cl)cc(Cl)c1 (centres unmarked) [Example 14, 1-(3,5-Dichlorophenyl)-2-methyl-2-propyl 2-amino-3-methylbutanoate]	4	> 10		10	
1-(4-Chlorophenyl)-2-methyl-2-propyl SS/RS-2-amino-3-methylpentanoate [Example 15]	8	3.1			Potentiation of OTMN tremor in rat (lowest dose causing a significant potentiation) [3, 7]: 10 mg/kg
O=C1CCCN1CC#CCN1CCCC1 [oxotremorine, reference compound]					minimal effective dose ([3]; sc, read-out: threshold dose of oxotremorine for eliciting tremor in rat, s.c., oxotremorine alone): 0.2 mg/kg
CC(C)C(N)C(=O)OC(C)(C)Cc1ccc(Cl)cc1 (single isomer, unassigned; (+)) [Example 26, (+)-1-(4-Chlorophenyl)-2-methyl-2-propyl 2-amino-3-methylbutanoate]	8.7	1.8	20		
